Molecules are shown by their SMILES.

Here are results for 21 molecules from US11807644B2 (PMV Pharmaceuticals, Inc., priority 2020, dated 2023).

The target of this assay is T1, recombinant His-tag Y220C p53 DBD protein (Homo sapiens, UniProt P04637, Y220C).
T1 construct: recombinant His-tag Y220C p53 DBD protein (amino acids #˜94-312)
Briefly: In vitro DNA binding activity assay (TR-FRET): binding of His-tag Y220C p53 DBD to biotin-labeled consensus DNA. Particulars: SC150 = concentration to increase DNA binding by […], His-tag Y220C p53 DBD, biotin-labeled consensus DNA. In kind it is biochemical. On the technique in general: In TR-FRET formats the signal depends on donor and acceptor labels being close together.
Consider `COCC(C)(C)n1cc(C(=O)NCc2nc(-c3cc4c(N[C@@H]5CCN(C(C)(C)C)C[C@@H]5F)cccc4n3CC(F)(F)F)no2)cn1` [Compound 412B, N-{[3-(4-{[(3S,4R)-1-tert-butyl-3-fluoropiperidin-4-yl]amino}-1-(2,2,2-trifluoroethyl)-1H-indol-2-yl)-1,2,4-oxadiazol-5-yl]methyl}-1-(1-methoxy-2-methylpropan-2-yl)-1H-pyrazole-4-carboxamide], for which the “Y220C SC150 (μM)” value is “* (* = 0 μM ≤ SC150 < 0.1 μM)”.

In the case of `CN1CC[C@@H](Nc2cccc3c2cc(-c2noc(CNC(=O)c4ccc(N(C)C)nc4)n2)n3CC(F)(F)F)[C@@H](F)C1` [Compound 557B, 6-(dimethylamino)-N-{[3-(4-{[(3S,4R)-3-fluoro-1-methylpiperidin-4-yl]amino}-1-(2,2,2-trifluoroethyl)-1H-indol-2-yl)-1,2,4-oxadiazol-5-yl]methyl}pyridine-3-carboxamide], the “Y220C SC150 (μM)” value is given as “* (* = 0 μM ≤ SC150 < 0.1 μM)”.

Regarding `CCN1CC[C@@H](Nc2cccc3c2cc(-c2noc(CNC(=O)c4ccn(C5CCOCC5)c4)n2)n3CC(F)(F)F)[C@@H](F)C1` [Compound 333B, N-{[3-(4-{[(3S,4R)-1-ethyl-3-fluoropiperidin-4-yl]amino}-1-(2,2,2-trifluoroethyl)-1H-indol-2-yl)-1,2,4-oxadiazol-5-yl]methyl}-1-(oxan-4-yl)-1H-pyrrole-3-carboxamide], the “Y220C SC150 (μM)” value is reported as “* (* = 0 μM ≤ SC150 < 0.1 μM)”.

Take `CN1CC[C@@H](Nc2cccc3c2cc(-c2noc(CNC(=O)c4ccc(C5(CO)CC5)s4)n2)n3CC(F)(F)F)[C@@H](F)C1` [Compound 486B, N-{[3-(4-{[(3S,4R)-3-fluoro-1-methylpiperidin-4-yl]amino}-1-(2,2,2-trifluoroethyl)-1H-indol-2-yl)-1,2,4-oxadiazol-5-yl]methyl}-5-[1-(hydroxymethyl)cyclopropyl]thiophene-2-carboxamide]: the “Y220C SC150 (μM)” value is recorded as “* (* = 0 μM ≤ SC150 < 0.1 μM)”.

In the case of `CN1CC[C@@H](Nc2cccc3c2cc(-c2nccs2)n3CC(F)(F)F)[C@@H](F)C1` (racemic) [Compound 93B, (+/−)-N-[(3R,4S)-3-fluoro-1-methylpiperidin-4-yl]-2-(1,3-thiazol-2-yl)-1-(2,2,2-trifluoroethyl)-1H-indol-4-amine], the “Y220C SC150 (μM)” value is “*** (*** = 0.5 μM ≤ SC150 < 1 μM)”.

`CN1CC[C@@H](Nc2cccc3c2cc(-c2noc(C(=O)NCC4CC4)n2)n3CC(F)(F)F)[C@@H](F)C1` [Compound 545B, N-(cyclopropylmethyl)-3-(4-{[(3S,4R)-3-fluoro-1-methylpiperidin-4-yl]amino}-1-(2,2,2-trifluoroethyl)-1H-indol-2-yl)-1,2,4-oxadiazole-5-carboxamide]: the “Y220C SC150 (μM)” value is given as “** (** = 0.1 μM ≤ SC150 < 0.5 μM)”.

In the case of `CN1CC[C@@H](Nc2cccc3c2cc(-c2noc(CNC(=O)c4csc(C5(CO)CC5)c4)n2)n3CC(F)(F)F)[C@@H](F)C1` [Compound 487B, N-{[3-(4-{[(3S,4R)-3-fluoro-1-methylpiperidin-4-yl]amino}-1-(2,2,2-trifluoroethyl)-1H-indol-2-yl)-1,2,4-oxadiazol-5-yl]methyl}-5-[1-(hydroxymethyl)cyclopropyl]thiophene-3-carboxamide], the “Y220C SC150 (μM)” value was “* (* = 0 μM ≤ SC150 < 0.1 μM)”.

As for `CN1CC[C@@H](Nc2cccc3c2cc(-c2noc(CNC(=O)[C@@H]4C[C@@H]4c4ccccc4)n2)n3CC(F)(F)F)[C@@H](F)C1` [Compound 207B, (1R,2S)-N-{[3-(4-{[(3S,4R)-3-fluoro-1-methylpiperidin-4-yl]amino}-1-(2,2,2-trifluoroethyl)-1H-indol-2-yl)-1,2,4-oxadiazol-5-yl]methyl}-2-phenylcyclopropane-1-carboxamide], the “Y220C SC150 (μM)” value is given as “** (** = 0.1 μM ≤ SC150 < 0.5 μM)”.

As for `COCCn1cnc(C(=O)NCc2nc(-c3cc4c(N[C@@H]5CCN(C)C[C@@H]5F)cccc4n3CC(F)(F)F)no2)c1` [Compound 297B, N-{[3-(4-{[(3S,4R)-3-fluoro-1-methylpiperidin-4-yl]amino}-1-(2,2,2-trifluoroethyl)-1H-indol-2-yl)-1,2,4-oxadiazol-5-yl]methyl}-1-(2-methoxyethyl)-1H-imidazole-4-carboxamide], the “Y220C SC150 (μM)” value was “* (* = 0 μM ≤ SC150 < 0.1 μM)”.

On to `COCCN(C)c1nc(C(=O)NCc2nc(-c3cc4c(N[C@@H]5CCN(C)C[C@@H]5F)cccc4n3CC(F)(F)F)no2)cs1` [Compound 536B, N-{[3-(4-{1[(3S,4R)-3-fluoro-1-methylpiperidin-4-yl]amino}-1-(2,2,2-trifluoroethyl)-1H-indol-2-yl)-1,2,4-oxadiazol-5-yl]methyl}-2-[(2-methoxyethyl)(methyl)amino]-1,3-thiazole-4-carboxamide], for which the “Y220C SC150 (μM)” value is “* (* = 0 μM ≤ SC150 < 0.1 μM)”.

For `CCOCC1(n2ccc(C(=O)NCc3nc(-c4cc5c(N[C@@H]6CCN(C)C[C@@H]6F)cccc5n4CC(F)(F)F)no3)c2)CC1` [Compound 481B, 1-[1-(ethoxymethyl)cyclopropyl]-N-{[3-(4-{[(3S,4R)-3-fluoro-1-methylpiperidin-4-yl]amino}-1-(2,2,2-trifluoroethyl)-1H-indol-2-yl)-1,2,4-oxadiazol-5-yl]methyl}-1H-pyrrole-3-carboxamide], the “Y220C SC150 (μM)” value is listed as “* (* = 0 μM ≤ SC150 < 0.1 μM)”.

On to `COc1cc(S(C)(=O)=O)ccc1NCc1ccc(-c2cc3c(N[C@H]4CCN(C)C[C@H]4F)cccc3n2CC(F)(F)F)s1` (racemic) [Compound 101B, (+/−)-N-[(3R,4S)-3-fluoro-1-methylpiperidin-4-yl]-2-(5-{[(4-methanesulfonyl-2-methoxyphenyl)amino]methyl}thiophen-2-yl)-1-(2,2,2-trifluoroethyl)-1H-indol-4-amine], for which the “Y220C SC150 (μM)” value was “* (* = 0 μM ≤ SC150 < 0.1 μM)”.

On to `COC(C)(C)c1ccc(C(=O)NCc2nc(-c3cc4c(N[C@H]5CCNC[C@H]5F)cccc4n3CC(F)(F)F)no2)s1` [Compound 479B, N-{[3-(4-{[(3R,4S)-3-fluoropiperidin-4-yl]amino}-1-(2,2,2-trifluoroethyl)-1H-indol-2-yl)-1,2,4-oxadiazol-5-yl]methyl}-5-(2-methoxypropan-2-yl)thiophene-2-carboxamide], for which the “Y220C SC150 (μM)” value is listed as “* (* = 0 μM ≤ SC150 < 0.1 μM)”.

For `CN1CC[C@@H](Nc2cccc3c2cc(-c2noc(CNC(=O)c4ccc(C(C)(C)C)nc4)n2)n3CC(F)(F)F)[C@@H](F)C1` [Compound 501B, 6-tert-butyl-N-{[3-(4-{[(3S,4R)-3-fluoro-1-methylpiperidin-4-yl]amino}-1-(2,2,2-trifluoroethyl)-1H-indol-2-yl)-1,2,4-oxadiazol-5-yl]methyl}pyridine-3-carboxamide], the “Y220C SC150 (μM)” value was “* (* = 0 μM ≤ SC150 < 0.1 μM)”.

Turning to `CC(C)(C)N1CC[C@@H](Nc2cccc3c2cc(-c2noc(CNC(=O)c4ccn(C(C)(C)C)c4)n2)n3CC(F)(F)F)[C@H](F)C1` [Compound 394B, 1-tert-butyl-N-{[3-(4-{[(3R,4R)-1-tert-butyl-3-fluoropiperidin-4-yl]amino}-1-(2,2,2-trifluoroethyl)-1H-indol-2-yl)-1,2,4-oxadiazol-5-yl]methyl}-1H-pyrrole-3-carboxamide], the “Y220C SC150 (μM)” value is listed as “* (* = 0 μM ≤ SC150 < 0.1 μM)”.

With `CN1CC[C@@H](Nc2cccc3c2cc(-c2nnc(CNC(=O)C4CC4)s2)n3CC(F)(F)F)[C@@H](F)C1` [Compound 47B, N-{[5-(4-{[(3S,4R)-3-fluoro-1-methylpiperidin-4-yl]amino}-1-(2,2,2-trifluoroethyl)-1H-indol-2-yl)-1,3,4-thiadiazol-2-yl]methyl}cyclopropanecarboxamide], the “Y220C SC150 (μM)” value was “* (* = 0 μM ≤ SC150 < 0.1 μM)”.

Regarding `CN1CC[C@@H](Nc2cccc3c2cc(-c2noc(C(=O)NCc4cnn(C)c4)n2)n3CC(F)(F)F)[C@@H](F)C1` [Compound 546B, 3-(4-{[(3S,4R)-3-fluoro-1-methylpiperidin-4-yl]amino}-1-(2,2,2-trifluoroethyl)-1H-indol-2-yl)-N-[(1-methyl-1H-pyrazol-4-yl)methyl]-1,2,4-oxadiazole-5-carboxamide], the “Y220C SC150 (μM)” value was “** (** = 0.1 μM ≤ SC150 < 0.5 μM)”.

Take `CN1CCC(Nc2cccc3c2cc(-c2nnc(CNC(=O)c4ccc5[nH]ncc5c4)s2)n3CC(F)(F)F)CC1` [Compound 55B, N-[(5-{4-[(1-methylpiperidin-4-yl)amino]-1-(2,2,2-trifluoroethyl)-1H-indol-2-yl}-1,3,4-thiadiazol-2-yl)methyl]-1H-indazole-5-carboxamide]: the “Y220C SC150 (μM)” value was “** (** = 0.1 μM ≤ SC150 < 0.5 μM)”.

Take `CN1CC[C@H](Nc2cccc3c2cc(-c2noc(CNC(=O)c4ccsc4)n2)n3CC(F)(F)F)[C@H](F)C1` [Compound 190B, N-{[3-(4-{[(3R,4S)-3-fluoro-1-methylpiperidin-4-yl]amino}-1-(2,2,2-trifluoroethyl)-1H-indol-2-yl)-1,2,4-oxadiazol-5-yl]methyl}thiophene-3-carboxamide]: the “Y220C SC150 (μM)” value is “* (* = 0 μM ≤ SC150 < 0.1 μM)”.

As for `CN1CC[C@@H](Nc2cccc3c2cc(-c2noc(CNC(=O)c4ccn(C5CCCC5OCCF)c4)n2)n3CC(F)(F)F)[C@@H](F)C1` (stereo in doubt) [Compound 381B, N-{[3-(4-{[(3S,4R)-3-fluoro-1-methylpiperidin-4-yl]amino}-1-(2,2,2-trifluoroethyl)-1H-indol-2-yl)-1,2,4-oxadiazol-5-yl]methyl}-1-[(1R,2R)-2-(2-fluoroethoxy)cyclopentyl]-1H-pyrrole-3-carboxamide], the “Y220C SC150 (μM)” value is reported as “* (* = 0 μM ≤ SC150 < 0.1 μM)”.

For the molecule `CN1CC[C@H](Nc2cccc3c2cc(-c2nnc(CNC(=O)c4ccccc4)o2)n3CC(F)(F)F)[C@H](F)C1` (racemic) [Compound 118B, (+/−)-N-{[5-(4-{[(3R,4S)-3-fluoro-1-methylpiperidin-4-yl]amino}-1-(2,2,2-trifluoroethyl)-1H-indol-2-yl)-1,3,4-oxadiazol-2-yl]methyl}benzamide], the “Y220C SC150 (μM)” value is given as “** (** = 0.1 μM ≤ SC150 < 0.5 μM)”.
